This assay deals with V1a (Homo sapiens, UniProt P37288). Put plainly: Human vasopression V1a receptor binding assay. More on the design: host or cells: CHO cells (hV1a cell line), whole adherent cells. Particulars: hV1a cell line (CHO); for IC50: 1 nM 3H-AVP, Table 17, read-out: V1a Binding Affinity (IC50 (nM)); for Ki: Table 18. As to the method: Human vasopression V1a receptor binding assay. A cell line expressing the human V1a receptor in CHO cells (henceforth referred to as the hV1a cell line) was obtained from Dr. Michael Brownstein, NIMH, Bethesda, Md., USA. The hV1a cDNA sequence is described by Thibonnier et al., Journal of Biological Chemistry, 269, 3304-3310 (1994), and the expression method was the same as described by Morel et al. (1992). The hV1a cell line was grown in alpha-MEM with 10% fetal bovine serum and 250 ug/ml G418 (Gibco, Grand Island, N.Y., USA). For competitive binding assay, hV1a cells were plated into 6-well culture plate at 1:10 dilution from a confluency flask, and maintained in culture for at least two days. Culture medium was then removed, cells were washed with 2 ml binding buffer (25 mM Hepes, 0.25% BSA, 1×DMEM, PH=7.0). To each well, 990 μl binding buffer containing 1 nM 3H-AVP was added, and followed by 10 μl series diluted Example compounds dissolved in DMSO. […] 100 nM cold AVP (Sigma) was used to assess non-specific binding. Cells were incubated for 45 minutes at 37° C., assay mixture was removed and each well was washed three times with PBS (pH=7.4). 1 ml 2% SDS was added per well and plates were let sit for 30 minutes. The whole content in a well was transferred to a scintillation vial. Each well was rinsed with 0.5 ml PBS which was then added to the corresponding vial. Scintillation fluid (Ecoscint, National Diagnostics, Atlanta, Ga.) was then added at 3 ml per vial. Samples were counted in a liquid scintillation counter (Beckman LS3801). IC50 values were calculated by Prism Curve fitting software.
Sequence of V1a (P37288 whole entry): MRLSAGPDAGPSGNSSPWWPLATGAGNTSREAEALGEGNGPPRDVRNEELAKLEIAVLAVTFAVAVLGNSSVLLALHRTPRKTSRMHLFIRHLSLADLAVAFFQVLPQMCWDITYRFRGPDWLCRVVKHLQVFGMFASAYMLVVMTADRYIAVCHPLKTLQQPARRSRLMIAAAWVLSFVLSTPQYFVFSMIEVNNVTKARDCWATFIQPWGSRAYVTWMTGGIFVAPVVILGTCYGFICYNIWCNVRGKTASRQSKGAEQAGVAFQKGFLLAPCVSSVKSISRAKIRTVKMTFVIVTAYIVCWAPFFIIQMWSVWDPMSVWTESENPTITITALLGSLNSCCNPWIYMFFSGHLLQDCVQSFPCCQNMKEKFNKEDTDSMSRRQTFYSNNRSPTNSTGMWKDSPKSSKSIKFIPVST
All of the alkanedioic esters and amides exemplified in the foregoing examples dissolved in DMSO were tested in this assay. Binding curves were generated according to methods described by Thibonnier et al. (1994). [^3H]-AVP was added to the hV1a cell cultures followed by 10 fold dilutions of each test compound.

As a reminder, the IC50 is the concentration that gives 50% inhibition. Broadly, the Ki is the dissociation constant of the complex between target and ligand, obtained from inhibition or displacement. A lower Ki goes with higher affinity.

Regarding `Cc1ccc(CNC(=O)[C@H](CCC(=O)N2CCN(C3CCCCC3)CC2)N2C(=O)[C@@H](N3C(=O)OC[C@@H]3c3ccccc3)[C@H]2/C=C/c2ccccc2)o1` [Example 212], the concentration for half-maximal inhibition (IC50) turned out to be 0.95 nM and the Ki worked out at 0.58 nM.
The corresponding values for `O=C(NCc1cccs1)[C@H](CCC(=O)N1CCN(C2CCCCC2)CC1)N1C(=O)[C@@H](N2C(=O)OC[C@@H]2c2ccccc2)[C@H]1/C=C/c1ccccc1` [Example 213] are 0.78 nM and 0.48 nM.
For `O=C(NC1CCc2ccccc21)[C@H](CCC(=O)N1CCN(C2CCCCC2)CC1)N1C(=O)[C@@H](N2C(=O)OC[C@@H]2c2ccccc2)[C@H]1/C=C/c1ccccc1` (stereo partly shown) [Example 216], the IC50 was determined as 1.83 nM and the Ki was found to be 1.12 nM.
Take `O=C(NC1(c2ccccc2)CCCC1)[C@H](CCC(=O)N1CCN(C2CCCCC2)CC1)N1C(=O)[C@@H](N2C(=O)OC[C@@H]2c2ccccc2)[C@H]1/C=C/c1ccccc1` [Example 217]: the IC50 came to 3.17 nM and the Ki was 1.94 nM.
With `COc1cc(OC)cc(C(C)(C)NC(=O)[C@H](CCC(=O)N2CCN(C3CCCCC3)CC2)N2C(=O)[C@@H](N3C(=O)OC[C@@H]3c3ccccc3)[C@H]2/C=C/c2ccccc2)c1` [Example 218], the 50% inhibitory concentration (IC50) stood at 7.7 nM and the inhibitory constant (Ki) came out at 4.7 nM.
For `COc1ccc(OC)c(CNC(=O)[C@H](CCC(=O)N2CCN(C3CCCCC3)CC2)N2C(=O)[C@@H](N3C(=O)OC[C@@H]3c3ccccc3)[C@H]2/C=C/c2ccccc2)c1` [Example 219] the same measures were 0.63 nM and 0.39 nM.
For the compound `COc1ccccc1CNC(=O)[C@H](CCC(=O)N1CCN(C2CCCCC2)CC1)N1C(=O)[C@@H](N2C(=O)OC[C@@H]2c2ccccc2)[C@H]1/C=C/c1ccccc1` [Example 220], the IC50 was 5.3 nM and the affinity, expressed as Ki, was 3.26 nM.
Take `CCCCN1CCN(C(=O)CC[C@@H](C(=O)NCc2cccc(C(F)(F)F)c2)N2C(=O)[C@@H](N3C(=O)OC[C@@H]3c3ccccc3)[C@H]2/C=C/c2ccccc2)CC1` [Example 221AB]: the 50% inhibitory concentration (IC50) was less than 10 nM.
For the compound `CCN1CCN(C(=O)CC[C@@H](C(=O)NCc2cccc(C(F)(F)F)c2)N2C(=O)[C@@H](N3C(=O)OC[C@@H]3c3ccccc3)[C@H]2/C=C/c2ccccc2)CC1` [Example 221AC], the IC50 is less than 10 nM.
The same measure, in the same setting: the value for `O=C(CC[C@@H](C(=O)N[C@@H]1CCCc2ccccc21)N1C(=O)[C@@H](N2C(=O)OC[C@@H]2c2ccccc2)[C@H]1/C=C/c1ccccc1)N[C@@H]1CCN(Cc2ccccc2)C1` [Example 221AD] was approximately 50 nM; that for `O=C(CC[C@@H](C(=O)N[C@@H]1CCCc2ccccc21)N1C(=O)[C@@H](N2C(=O)OC[C@@H]2c2ccccc2)[C@H]1/C=C/c1ccccc1)NC1CN2CCC1CC2` (stereo partly shown) [Example 221AE] was approximately 50 nM; that for `CCN1CCC[C@H]1CNC(=O)CC[C@@H](C(=O)N[C@@H]1CCCc2ccccc21)N1C(=O)[C@@H](N2C(=O)OC[C@@H]2c2ccccc2)[C@H]1/C=C/c1ccccc1` [Example 221AI] was approximately 50 nM.
Still for that read-out and setting: then `O=C(CC[C@@H](C(=O)N[C@@H]1CCCc2ccccc21)N1C(=O)[C@@H](N2C(=O)OC[C@@H]2c2ccccc2)[C@H]1/C=C/c1ccccc1)Nc1cnc2ccccc2c1` [Example 221AL], with approximately 100 nM.
`O=C(NC1(c2cccc(F)c2)CCCC1)[C@H](CCC(=O)N1CCN(C2CCCCC2)CC1)N1C(=O)[C@@H](N2C(=O)OC[C@@H]2c2ccccc2)[C@H]1/C=C/c1ccccc1` [Example 221AM] registered a Ki of 2.7 nM.
As for `COc1ccc(C2(NC(=O)[C@H](CCC(=O)N3CCN(C4CCCCC4)CC3)N3C(=O)[C@@H](N4C(=O)OC[C@@H]4c4ccccc4)[C@H]3/C=C/c3ccccc3)CC2)cc1` [Example 221AO], the 50% inhibitory concentration (IC50) was approximately 100 nM.
Take `Cc1ccc(C2(NC(=O)[C@H](CCC(=O)N3CCN(C4CCCCC4)CC3)N3C(=O)[C@@H](N4C(=O)OC[C@@H]4c4ccccc4)[C@H]3/C=C/c3ccccc3)CC2)cc1` [Example 221AP]: the Ki was determined as 3.8 nM.
Turning to `O=C(NC1(c2ccc(Cl)cc2)CCCC1)[C@H](CCC(=O)N1CCN(C2CCCCC2)CC1)N1C(=O)[C@@H](N2C(=O)OC[C@@H]2c2ccccc2)[C@H]1/C=C/c1ccccc1` [Example 221AQ], the IC50 was approximately 50 nM.
For the compound `Cc1ccc(C2(NC(=O)[C@H](CCC(=O)N3CCN(C4CCCCC4)CC3)N3C(=O)[C@@H](N4C(=O)OC[C@@H]4c4ccccc4)[C@H]3/C=C/c3ccccc3)CCCC2)cc1` [Example 221AS], the 50% inhibitory concentration (IC50) is approximately 20 nM.
With `CC(C)(C)OC(=O)N[C@@H]1CCN(C2CCN(C(=O)CC[C@@H](C(=O)NC3(c4ccccc4)CCCC3)N3C(=O)[C@@H](N4C(=O)OC[C@@H]4c4ccccc4)[C@H]3/C=C/c3ccccc3)CC2)C1` [Example 221AX], the IC50 worked out at 83 nM and the inhibition constant (Ki) came out at 51 nM.
Regarding `O=C(Nc1cccc2c1CCC2)[C@H](CCC(=O)N1CCN(C2CCCCC2)CC1)N1C(=O)[C@@H](N2C(=O)OC[C@@H]2c2ccccc2)[C@H]1/C=C/c1ccccc1` [Example 221AY], the 50% inhibitory concentration (IC50) was approximately 30 nM.
Consider `Cc1cccc(CN(C)C(=O)[C@H](CCC(=O)N2CCN(C3CCCCC3)CC2)N2C(=O)[C@@H](N3C(=O)OC[C@@H]3c3ccccc3)[C@H]2/C=C/c2ccccc2)c1` [Example 221A], for which the IC50 was 2.71 nM and the inhibition constant Ki came out at 1.66 nM.
For `CCN1CCN(C(=O)CC[C@@H](C(=O)N[C@@H]2CCCc3ccccc32)N2C(=O)[C@@H](N3C(=O)OC[C@@H]3c3ccccc3)[C@H]2/C=C/c2ccccc2)CC1` [Example 221BD] the same measures were 2.7 nM and 1.66 nM.
Consider `O=C(N[C@@H]1CCCc2ccccc21)[C@H](CCC(=O)N1CCN(CCCO)CC1)N1C(=O)[C@@H](N2C(=O)OC[C@@H]2c2ccccc2)[C@H]1/C=C/c1ccccc1` [Example 221BI], for which the IC50 turned out to be 56 nM and the affinity, expressed as Ki, was 35 nM.
As to `CN(Cc1cccc(Cl)c1Cl)C(=O)[C@H](CCC(=O)N1CCN(C2CCCCC2)CC1)N1C(=O)[C@@H](N2C(=O)OC[C@@H]2c2ccccc2)[C@H]1/C=C/c1ccccc1` [Example 221B], the IC50 was determined as 0.59 nM and the affinity corresponds to a Ki of 0.36 nM.
For `CN(Cc1cccc(Cl)c1)C(=O)[C@H](CCC(=O)N1CCN(C2CCCCC2)CC1)N1C(=O)[C@@H](N2C(=O)OC[C@@H]2c2ccccc2)[C@H]1/C=C/c1ccccc1` [Example 221C] the same measures were 3 nM and 1.84 nM.
On to `CN(Cc1cccc(Br)c1)C(=O)[C@H](CCC(=O)N1CCN(C2CCCCC2)CC1)N1C(=O)[C@@H](N2C(=O)OC[C@@H]2c2ccccc2)[C@H]1/C=C/c1ccccc1` [Example 221D], for which the 50% inhibitory concentration (IC50) was determined as 2.41 nM and the Ki was found to be 1.48 nM.
`CN(Cc1cc(Cl)cc(Cl)c1)C(=O)[C@H](CCC(=O)N1CCN(C2CCCCC2)CC1)N1C(=O)[C@@H](N2C(=O)OC[C@@H]2c2ccccc2)[C@H]1/C=C/c1ccccc1` [Example 221E]: the IC50 came to 20.2 nM and the inhibition constant (Ki) came out at 12.4 nM.
Turning to `O=C(NC1(c2ccccc2)CCCCC1)[C@H](CCC(=O)N1CCN(C2CCCCC2)CC1)N1C(=O)[C@@H](N2C(=O)OC[C@@H]2c2ccccc2)[C@H]1/C=C/c1ccccc1` [Example 221G], the IC50 is 1.5 nM and the Ki was determined as 0.93 nM.
`O=C(NC1(c2ccccc2F)CCCC1)[C@H](CCC(=O)N1CCN(C2CCCCC2)CC1)N1C(=O)[C@@H](N2C(=O)OC[C@@H]2c2ccccc2)[C@H]1/C=C/c1ccccc1` [Example 221H]: the IC50 was 4 nM and the inhibition constant (Ki) was 2.5 nM.
The corresponding values for `O=C(NC1(c2ccc(F)cc2)CCCC1)[C@H](CCC(=O)N1CCN(C2CCCCC2)CC1)N1C(=O)[C@@H](N2C(=O)OC[C@@H]2c2ccccc2)[C@H]1/C=C/c1ccccc1` [Example 221I] are 12 nM and 7.4 nM.
For `O=C(NC(c1ccccc1)c1ccccc1)[C@H](CCC(=O)N1CCN(C2CCCCC2)CC1)N1C(=O)[C@@H](N2C(=O)OC[C@@H]2c2ccccc2)[C@H]1/C=C/c1ccccc1` [Example 221K], the IC50 is approximately 5 nM.
Take `O=C(CC[C@@H](C(=O)N1CCc2ccccc2C1)N1C(=O)[C@@H](N2C(=O)OC[C@@H]2c2ccccc2)[C@H]1/C=C/c1ccccc1)N1CCN(C2CCCCC2)CC1` [Example 221O]: the concentration for half-maximal inhibition (IC50) turned out to be 8.4 nM and the affinity, expressed as Ki, was 5.1 nM.
For `O=C(NC1Cc2ccccc2C1)[C@H](CCC(=O)N1CCN(C2CCCCC2)CC1)N1C(=O)[C@@H](N2C(=O)OC[C@@H]2c2ccccc2)[C@H]1/C=C/c1ccccc1` [Example 221P] the same measures were 1.7 nM and 1.1 nM.
For the compound `O=C(NC(CCO)c1ccccc1)[C@H](CCC(=O)N1CCN(C2CCCCC2)CC1)N1C(=O)[C@@H](N2C(=O)OC[C@@H]2c2ccccc2)[C@H]1/C=C/c1ccccc1` (stereo partly shown) [Example 221Q], the half-inhibitory concentration (IC50) amounted to 18.1 nM and the Ki is 11.1 nM.

The record behind these values is patent US9597314B2, “Beta-lactamylalkanoic acids for treating premenstrual disorders” (AZEVAN PHARMACEUTICALS, INC., priority 2005, dated 2017).
